Results: publication PMC11359809, “Probing the molecular basis for signal transduction through the Zinc-Activated Channel (ZAC)” (Biochemical pharmacology, 2021)

Legend:
ZAC^E130A = biological target: T1, ZAC^E130A (Homo sapiens, UniProt Q401N2, A152T/E154A); test: TEVC in oocytes, ZAC E130A mutant; type: cell-based
T1 construct: expressed in transfected cells; host or cells: Xenopus oocytes (cRNA injection, pUNIV vector)
Experimental: (§1) The recordings were performed at room temperature.
(§2) Analysis of the data from the TEVC recordings were performed using Clampfit software version 10.5 (Molecular Devices, Crawley, UK) and GraphPad Prism version 7.0c (GraphPad Software, La Jolla, CA). Unless otherwise stated, the inward currents induced by agonists in oocytes were normalized to the maximal response elicited by a specific agonist (agonist Imax) on each oocyte. Concentration-response and concentration-inhibition curves were fitted in GraphPad Prism by nonlinear regression using the equation for sigmoidal dose-response with variable slope. Each data point represents the mean ± S.E.M. value of recordings performed on at least five oocytes in total from at least two different batches. […] The null hypothesis was rejected at P < 0.05, and the differences between the means were analyzed by Tukey’s multiple comparisons test.
(§3) The putative involvement of candidate residues in Clusters 1, 2, 3 and 4 in Zn^2+ binding to ZAC was investigated in by an elaborate alanine mutagenesis scanning. […] The determined IpH 4.0 value was used in part as a control and in part to enable the distinction of ZAC mutants non-responsive to Zn^2+ due to elimination of their ability to bind the metal ion from those where the mutation had eliminated cell surface expression and/or disrupted overall functionality of the receptor complex. […]

ZAC^D105A/E130A = biological target: T2, ZAC^D105A/E130A (Homo sapiens, UniProt Q401N2, A152T/D129A/E154A); test: TEVC in oocytes, ZAC D105A/E130A mutant; type: cell-based; conditions: 10 mM Zn^2+; data not shown
T2 construct: expressed in transfected cells; host or cells: Xenopus oocytes injected with cRNA (pUNIV vector)
Experimental: as §1, §2, §3

m5-HT3A/ZAC = biological target: T3, m5-HT3A/ZAC (Mus musculus / Homo sapiens, UniProt P23979); test: TEVC in oocytes expressing m5-HT3A/ZAC chimera; type: cell-based
T3 sequence (P23979 24-246): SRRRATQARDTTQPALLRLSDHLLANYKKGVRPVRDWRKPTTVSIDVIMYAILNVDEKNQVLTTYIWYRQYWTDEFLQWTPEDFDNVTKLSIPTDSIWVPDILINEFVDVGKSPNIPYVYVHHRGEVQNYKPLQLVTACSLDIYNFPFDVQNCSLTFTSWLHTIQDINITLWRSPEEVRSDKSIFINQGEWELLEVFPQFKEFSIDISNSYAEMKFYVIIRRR
T3 sequence (Q401N2 231-412 partner): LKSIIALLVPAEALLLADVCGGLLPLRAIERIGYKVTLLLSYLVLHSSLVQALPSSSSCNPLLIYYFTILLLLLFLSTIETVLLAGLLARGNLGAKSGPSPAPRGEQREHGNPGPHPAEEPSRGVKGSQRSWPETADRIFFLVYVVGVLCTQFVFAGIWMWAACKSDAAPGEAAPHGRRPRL
Description: The construction of the ZAC-pUNIV plasmid (encoding for the human WT ZAC that contains a Thr in position 128) has been described previously. The m5-HT3A and hα1 GlyR cDNAs were subcloned from their original vectors into pUNIV (Addgene, Watertown, MA) using NheI and EcoRI as restriction enzymes. […] The C-terminus modifications in these four chimeras were introduced in their cDNAs in the same way. Point mutations were introduced in cDNAs by use of the QuikChange mutagenesis kit (Stratagene, San Diego, CA). The validity and absence of unwanted mutations in the constructed cDNAs was verified by DNA sequencing (Macrogen Europe, Amsterdam, The Netherlands).
All cDNAs used for cRNA synthesis were inserted in the pUNIV vector. The cDNAs were linearized and subsequently transcribed and capped using the mMessage mMachine T7 RNA transcription kit (Ambion, Waltham, MA). […] Oocytes were incubated in a sterile modified Barth’s solution [88 mM NaCl, 1 mM KCl, 15 mM HEPES (pH 7.5), 2.4 mM NaHCO3, 0.41 mM CaCl2, 0.82 mM MgSO4, 0.3 mM Ca(NO3)2, 100 U/ml penicillin and 100 μg/ml streptomycin] at 16–18 °C. Based on experience gained with WT ZAC in a recent study, all TEVC recordings were performed two days after cRNA injection.
On the day of the TEVC recording, all compound dilutions were prepared in a saline solution [115 mM NaCl, 2.5 mM KCl, 10 mM MOPS (pH 7.5), 1.8 mM CaCl2, 0.1 mM MgCl2], and pH was adjusted to 7.5 (if needed). Oocytes were placed in a recording chamber continuously perfused with this saline solution, and the compounds were applied in the perfusate. Both voltage and current electrodes were agar-plugged with 3 M KCl with a resistance of 0.2–2.0 MΩ. Oocytes were voltage-clamped at −50 mV (except in the studies of the chimeras and their parent receptors where they were clamped at −60 mV, section 3.1), by a Gene Clamp 500B amplifier, and current signals were digitized by a Digidata 1322A (both from Axon Instruments, Union City, CA). Currents were recorded using pCLAMP 10 (Molecular Devices, Sunnyvale, CA). The recordings were performed at room temperature.
In all recordings, compounds or compound combinations were applied in the bath until the peak current decayed to a steady state (up to 30 s). […] The antagonist properties of compounds were determined by pre-application of the compound to the perfusate for 30 s followed by co-application of the compound and the agonist. In all recordings, washes of 1–5 min were executed between the ligand applications, the length of the washes depending on the agonist concentrations used and on the return to baseline current amplitude.
(§4) Analysis of the data from the TEVC recordings were performed using Clampfit software version 10.5 (Molecular Devices, Crawley, UK) and GraphPad Prism version 7.0c (GraphPad Software, La Jolla, CA). Unless otherwise stated, the inward currents induced by agonists in oocytes were normalized to the maximal response elicited by a specific agonist (agonist Imax) on each oocyte. Concentration-response and concentration-inhibition curves were fitted in GraphPad Prism by nonlinear regression using the equation for sigmoidal dose-response with variable slope. Each data point represents the mean ± S.E.M. value of recordings performed on at least five oocytes in total from at least two different batches. For the data where statistical analysis was performed, a one-way ANOVA was used. The null hypothesis was rejected at P < 0.05, and the differences between the means were analyzed by Tukey’s multiple comparisons test.

hα1-Gly/ZAC = test: TEVC in oocytes expressing hα1-Gly/ZAC chimera; type: cell-based, human; conditions: 10 mM Zn^2+; outward current; n = 5
Experimental: as §1, §4
(§5) Initially, we constructed four chimeric subunits fusing the ZAC ECD or TMD-ICD with the complementary domains from either the m5-HT3A or the hα1 GlyR subunit: ZAC/m5-HT3A, m5-HT3A/ZAC, ZAC/hα1-Gly and hα1-Gly/ZAC (Fig. 1A). […] (Fig. 1A).

ZAC/m5-HT3A = test: TEVC in oocytes expressing ZAC/m5-HT3A chimera; type: cell-based, mouse/human; conditions: 10 mM Zn^2+; n = 5
Experimental: as §1, §4, §5

T2 sequence (Q401N2 26-412 D129A/A152T/E154A): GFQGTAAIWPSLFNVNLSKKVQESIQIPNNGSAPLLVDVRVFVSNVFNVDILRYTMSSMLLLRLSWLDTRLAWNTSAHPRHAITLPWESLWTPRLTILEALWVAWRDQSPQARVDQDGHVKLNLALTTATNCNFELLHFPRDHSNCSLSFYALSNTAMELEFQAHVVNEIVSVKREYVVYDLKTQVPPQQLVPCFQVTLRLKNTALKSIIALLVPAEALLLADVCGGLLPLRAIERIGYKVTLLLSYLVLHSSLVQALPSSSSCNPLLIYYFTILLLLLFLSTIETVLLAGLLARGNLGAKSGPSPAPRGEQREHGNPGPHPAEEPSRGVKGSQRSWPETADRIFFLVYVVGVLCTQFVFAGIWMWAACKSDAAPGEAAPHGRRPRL
T1 sequence (Q401N2 26-412 A152T/E154A): as the sequence (Q401N2 26-412 D129A/A152T/E154A) above, with A104D counted along it

[Cl-].[Cl-].[Zn+2] [Zn^2+, ZnCl2]
concentration-response relationship compared to WT ZAC (ZAC^E130A): did not differ significantly | agonist responsiveness (ZAC^D105A/E130A): non-responsive | I10 mM Zn2+ ± S.E.M. (m5-HT3A/ZAC; 10 mM Zn^2+, n = 4): 0.0037 ± 0.0013 μA | modulation of 5-HT (EC80)-evoked currents (m5-HT3A/ZAC; 5-HT 1 μM): monophasic concentration-inhibition relationship | I10 mM Zn2+ ± S.E.M. (hα1-Gly/ZAC): 0.0298 ± 0.0058 μA | I10 mM Zn2+ ± S.E.M. (ZAC/m5-HT3A): −0.0038 ± 0.0009 μA
